{"source": "ChEMBL document CHEMBL1201862", "about": "“PubChem BioAssay data set” (2004)", "key": {"Cytochrome P450 3A4": {"molecular_target": "Cytochrome P450 3A4 (Homo sapiens, UniProt P08684)", "sequence (P08684 whole entry)": "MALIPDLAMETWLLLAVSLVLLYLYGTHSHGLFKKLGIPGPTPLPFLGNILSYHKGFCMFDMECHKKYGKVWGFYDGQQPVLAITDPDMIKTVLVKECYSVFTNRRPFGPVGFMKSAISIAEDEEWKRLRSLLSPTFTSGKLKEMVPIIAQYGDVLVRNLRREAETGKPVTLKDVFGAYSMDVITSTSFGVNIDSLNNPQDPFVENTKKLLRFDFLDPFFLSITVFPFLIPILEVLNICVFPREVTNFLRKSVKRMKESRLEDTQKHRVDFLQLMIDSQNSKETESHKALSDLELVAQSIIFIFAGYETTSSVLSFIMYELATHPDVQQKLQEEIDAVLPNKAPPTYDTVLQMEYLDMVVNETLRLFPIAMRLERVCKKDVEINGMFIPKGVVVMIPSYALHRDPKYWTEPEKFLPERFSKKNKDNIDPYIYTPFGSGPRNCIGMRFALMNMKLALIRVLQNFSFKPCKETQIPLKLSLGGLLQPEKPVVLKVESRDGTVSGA"}, "Cytochrome P450 1A2": {"molecular_target": "T1, Cytochrome P450 1A2 (Homo sapiens, UniProt P05177)", "T1 sequence (P05177 whole entry)": "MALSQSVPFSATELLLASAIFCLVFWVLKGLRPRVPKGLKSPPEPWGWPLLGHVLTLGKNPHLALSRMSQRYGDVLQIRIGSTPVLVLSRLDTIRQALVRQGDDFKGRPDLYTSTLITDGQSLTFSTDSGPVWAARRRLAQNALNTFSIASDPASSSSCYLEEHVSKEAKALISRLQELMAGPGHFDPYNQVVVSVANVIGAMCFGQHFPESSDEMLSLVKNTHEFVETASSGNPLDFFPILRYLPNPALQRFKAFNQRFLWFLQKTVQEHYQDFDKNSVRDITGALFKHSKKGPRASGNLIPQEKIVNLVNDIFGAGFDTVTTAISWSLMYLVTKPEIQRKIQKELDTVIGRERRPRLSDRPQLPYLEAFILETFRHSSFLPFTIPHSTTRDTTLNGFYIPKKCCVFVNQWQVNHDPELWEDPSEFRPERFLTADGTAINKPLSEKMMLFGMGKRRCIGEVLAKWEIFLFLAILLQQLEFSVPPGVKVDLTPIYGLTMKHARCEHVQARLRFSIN"}, "Cytochrome P450 2D6": {"molecular_target": "Cytochrome P450 2D6 (Homo sapiens, UniProt P10635)", "sequence (P10635 whole entry)": "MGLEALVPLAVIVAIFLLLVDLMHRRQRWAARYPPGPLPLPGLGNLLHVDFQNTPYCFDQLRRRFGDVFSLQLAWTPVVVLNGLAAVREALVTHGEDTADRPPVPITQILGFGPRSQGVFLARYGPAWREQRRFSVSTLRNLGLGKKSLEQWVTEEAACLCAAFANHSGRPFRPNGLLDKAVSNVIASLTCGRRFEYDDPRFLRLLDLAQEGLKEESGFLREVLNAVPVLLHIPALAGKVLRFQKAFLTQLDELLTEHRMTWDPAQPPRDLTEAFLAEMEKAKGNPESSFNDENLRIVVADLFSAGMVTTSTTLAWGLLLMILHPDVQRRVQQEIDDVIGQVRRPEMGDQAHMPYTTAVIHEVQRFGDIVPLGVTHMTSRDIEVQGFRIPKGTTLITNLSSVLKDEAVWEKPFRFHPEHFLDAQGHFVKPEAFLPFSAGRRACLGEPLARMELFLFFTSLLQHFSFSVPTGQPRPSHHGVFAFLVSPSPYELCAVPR"}, "Cytochrome P450 2C19": {"molecular_target": "Cytochrome P450 2C19 (Homo sapiens, UniProt P33261)", "sequence (P33261 whole entry)": "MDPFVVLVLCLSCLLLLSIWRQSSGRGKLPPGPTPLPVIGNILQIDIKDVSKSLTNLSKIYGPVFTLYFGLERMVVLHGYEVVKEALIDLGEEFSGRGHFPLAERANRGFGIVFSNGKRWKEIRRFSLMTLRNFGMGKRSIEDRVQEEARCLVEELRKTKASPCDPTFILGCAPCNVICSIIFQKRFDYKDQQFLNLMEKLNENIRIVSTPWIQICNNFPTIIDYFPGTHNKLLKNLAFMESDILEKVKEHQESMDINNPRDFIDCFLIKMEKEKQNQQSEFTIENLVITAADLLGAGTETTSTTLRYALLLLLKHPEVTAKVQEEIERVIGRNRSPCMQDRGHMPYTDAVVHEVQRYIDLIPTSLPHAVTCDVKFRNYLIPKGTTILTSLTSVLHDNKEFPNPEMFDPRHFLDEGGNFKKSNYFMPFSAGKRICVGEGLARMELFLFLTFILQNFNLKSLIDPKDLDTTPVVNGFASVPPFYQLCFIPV", "assay": "Cytochrome panel assay with activity outcomes. Panel member name: p450-cyp2c19 Compounds with AC50 equal or less than 10 uM are considered active", "assay_type": "functional", "conditions": "read-out: AC50"}, "Cytochrome P450 2C9": {"molecular_target": "Cytochrome P450 2C9 (Homo sapiens, UniProt P11712)", "sequence (P11712 whole entry)": "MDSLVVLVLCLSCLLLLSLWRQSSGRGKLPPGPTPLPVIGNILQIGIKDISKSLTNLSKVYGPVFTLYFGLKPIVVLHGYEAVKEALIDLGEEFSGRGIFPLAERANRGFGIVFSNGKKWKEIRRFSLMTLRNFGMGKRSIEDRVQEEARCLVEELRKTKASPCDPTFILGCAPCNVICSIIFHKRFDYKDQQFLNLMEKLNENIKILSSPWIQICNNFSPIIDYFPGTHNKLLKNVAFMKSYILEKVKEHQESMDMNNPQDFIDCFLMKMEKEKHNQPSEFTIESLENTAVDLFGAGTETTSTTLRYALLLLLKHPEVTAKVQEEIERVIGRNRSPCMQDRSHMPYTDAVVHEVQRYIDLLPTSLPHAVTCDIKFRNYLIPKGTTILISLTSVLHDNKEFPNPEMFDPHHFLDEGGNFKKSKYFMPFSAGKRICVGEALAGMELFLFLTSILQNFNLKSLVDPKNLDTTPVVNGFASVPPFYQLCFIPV"}, "[1]": {"molecular_target": "T2, Corticotropin-releasing factor receptor 2/Corticotropin-releasing factor-binding protein (Homo sapiens, UniProt P24387+Q13324)", "T2 sequence (Q13324 whole entry)": "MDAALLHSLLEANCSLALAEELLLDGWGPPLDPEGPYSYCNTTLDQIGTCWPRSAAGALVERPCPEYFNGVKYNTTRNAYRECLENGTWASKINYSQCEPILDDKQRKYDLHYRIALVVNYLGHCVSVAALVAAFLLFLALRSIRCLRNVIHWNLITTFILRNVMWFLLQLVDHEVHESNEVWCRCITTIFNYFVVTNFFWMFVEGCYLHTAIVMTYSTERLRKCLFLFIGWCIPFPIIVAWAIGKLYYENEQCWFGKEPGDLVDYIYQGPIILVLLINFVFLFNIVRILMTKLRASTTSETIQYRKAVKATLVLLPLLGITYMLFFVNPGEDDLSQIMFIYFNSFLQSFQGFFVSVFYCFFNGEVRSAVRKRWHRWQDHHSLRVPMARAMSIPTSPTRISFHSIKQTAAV", "T2 sequence (P24387 whole entry)": "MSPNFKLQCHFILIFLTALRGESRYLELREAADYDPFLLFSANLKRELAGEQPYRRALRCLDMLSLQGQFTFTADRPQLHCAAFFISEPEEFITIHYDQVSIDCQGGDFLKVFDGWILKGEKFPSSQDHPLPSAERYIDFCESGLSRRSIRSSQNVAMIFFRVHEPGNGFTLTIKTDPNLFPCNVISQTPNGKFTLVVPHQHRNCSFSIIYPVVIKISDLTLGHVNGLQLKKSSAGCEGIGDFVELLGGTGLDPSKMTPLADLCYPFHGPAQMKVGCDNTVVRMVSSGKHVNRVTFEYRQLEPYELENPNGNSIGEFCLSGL", "assay": "activators of CRF receptor 2 with binding protein – uHTS hits, confirmation (AID 602473)", "assay_type": "functional", "conditions": "read-out: EC50_Mean"}, "[2]": {"assay": "Shn3 3'UTR reporter inhibitors, dose response, cell-based, Clone20 osteoblasts, firefly luciferase, cherry-picked (AID 624132);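 also: firefly luciferase luminescence from reporter carrying the Shn3 3'UTR in osteoblasts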", "assay_type": "functional"}, "[3]": {"assay": "HepG2 cell cytotoxicity, dose response, cytotoxicity control for Shn3 inhibitor project, CellTiter-Glo, cherry-picked (AID 624134)", "assay_type": "functional, cell-based"}, "[4]": {"assay": "control 3'UTR Renilla luciferase suppression, dose response, counter-screen for Shn3 inhibitor project, cell-based, Clone20-Shn3RL, cherry-picked (AID 624133)", "assay_type": "functional"}, "P388/ADR": {"tested_on": "P388/ADR", "assay": "cells", "assay_type": "functional", "conditions": "Mus musculus"}, "SN12K1": {"tested_on": "SN12K1", "assay": "cells", "assay_type": "functional", "conditions": "Homo sapiens"}, "P388": {"tested_on": "P388", "assay": "cells", "assay_type": "functional", "conditions": "Mus musculus"}, "Paired box protein Pax-8": {"molecular_target": "Paired box protein Pax-8 (Homo sapiens, UniProt Q06710)", "sequence (Q06710 whole entry)": "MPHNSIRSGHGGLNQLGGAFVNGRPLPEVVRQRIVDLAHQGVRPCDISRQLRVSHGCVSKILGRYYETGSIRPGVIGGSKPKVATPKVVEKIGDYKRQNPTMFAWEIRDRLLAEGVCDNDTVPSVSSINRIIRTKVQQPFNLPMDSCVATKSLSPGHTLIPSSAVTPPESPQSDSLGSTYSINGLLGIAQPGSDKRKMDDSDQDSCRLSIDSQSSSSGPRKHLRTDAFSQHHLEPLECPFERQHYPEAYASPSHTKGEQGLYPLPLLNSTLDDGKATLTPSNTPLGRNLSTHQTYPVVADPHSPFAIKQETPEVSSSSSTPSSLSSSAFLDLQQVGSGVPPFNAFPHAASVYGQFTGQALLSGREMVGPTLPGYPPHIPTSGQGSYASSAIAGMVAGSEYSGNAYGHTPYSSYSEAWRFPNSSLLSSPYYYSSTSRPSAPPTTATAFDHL", "assay": "inhibitors of PAX8-driven TPO luciferase reporter, dose response, RMG-I cells, cherry-pick (AID 687027);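 also: luciferase reporter driven by Pax8 target thyroperoxidase promoter measured by SteadyGlo luminescence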", "assay_type": "functional, cell-based"}}, "note": "Calls of active or inactive are those of the source.", "data": [{"smiles": "COCC(=O)N1CCC[C@@]2(CCN(C(c3ccccc3)c3ccccc3)C2)C1", "values": [{"measurement": "AC50", "setting": "Cytochrome P450 3A4", "result": "10 µM (inconclusive)"}, {"measurement": "AC50", "setting": "Cytochrome P450 1A2", "result": "12.6 µM (inconclusive)"}]}, {"smiles": "O=S(=O)(c1ccccc1)N1CCC2(CCN(Cc3nccs3)CC2)CC1", "values": [{"measurement": "AC50", "setting": "Cytochrome P450 2D6", "result": "25.1 µM (inconclusive)"}]}, {"smiles": "CCOC(=O)CN(c1ccccn1)S(=O)(=O)c1ccccc1", "values": [{"measurement": "AC50", "setting": "Cytochrome P450 2C19", "result": "31.6 µM (inconclusive)"}, {"measurement": "AC50", "setting": "Cytochrome P450 2C9", "result": "3.55 µM (inconclusive)"}]}, {"smiles": "CCOC(=O)CC(Nc1nc(N2CCOCC2)nc(N2CCOCC2)n1)c1ccccc1Cl", "note": "(stereo not drawn)", "values": [{"measurement": "AC50", "setting": "Cytochrome P450 3A4", "result": "25.1 µM (inconclusive)"}, {"measurement": "AC50", "setting": "Cytochrome P450 1A2", "result": "10 µM (inconclusive)"}]}, {"smiles": "Cc1ccc(C(c2ccc(C)o2)c2cccc([N+](=O)[O-])c2O)o1", "values": [{"measurement": "AC50", "setting": "Cytochrome P450 3A4", "result": "28.2 µM (inconclusive)"}, {"measurement": "AC50", "setting": "Cytochrome P450 2D6", "result": "14.1 µM (inconclusive)"}]}, {"smiles": "CCC(C)(C)n1nnnc1C(C(C)C)N(CCCO)Cc1cc2cc(C)ccc2nc1O", "note": "(stereo not drawn)", "values": [{"measurement": "AC50", "setting": "Cytochrome P450 2C19", "result": "25.1 µM (inconclusive)"}, {"measurement": "AC50", "setting": "Cytochrome P450 1A2", "result": "15.8 µM (inconclusive)"}]}, {"smiles": "O=C(c1cc(-c2ccc(Cl)cc2Cl)on1)N1CCN(C(=O)c2ccco2)CC1", "values": [{"measurement": "AC50", "setting": "Cytochrome P450 2D6", "result": "20 µM (inconclusive)"}]}, {"smiles": "CCCC[C@H](CC)CNC(=N)NC(=N)NCCCCCCNC(=N)NC(=N)NC[C@@H](CC)CCCC", "values": [{"measurement": "AC50", "setting": "Cytochrome P450 2C19", "result": "3.98 µM (inconclusive)"}, {"measurement": "AC50", "setting": "Cytochrome P450 2C9", "result": "20 µM (inconclusive)"}, {"measurement": "AC50", "setting": "Cytochrome P450 1A2", "result": "15.8 µM (inconclusive)"}]}, {"smiles": "COc1cc(NC(=O)COC(=O)c2nc3nc(C)cc(C)n3n2)cc(OC)c1", "values": [{"measurement": "AC50", "setting": "Cytochrome P450 2D6", "result": "15.8 µM (inconclusive)"}, {"measurement": "AC50", "setting": "Cytochrome P450 2C9", "result": "28.2 µM (inconclusive)"}]}, {"smiles": "Cc1cccc(-n2c(C)cc(/C=C3\\C(=N)N4N=C(CC(C)C)SC4=NC3=O)c2C)c1", "values": [{"measurement": "EC50", "setting": "[1]", "result": "24.2 µM (active)"}]}, {"smiles": "CCOC(=O)CSC1=C(C#N)C(C)C2=C(O)CCCC2=N1", "note": "(stereo not drawn)", "values": [{"measurement": "AC50", "setting": "Cytochrome P450 2C9", "result": "22.4 µM (inconclusive)"}]}, {"smiles": "CCN1CCN(Cc2ccc(NC(=O)c3cc(NC(=O)c4cncc(-c5cccs5)c4)cc(OC)c3)cc2C(F)(F)F)CC1", "values": [{"measurement": "AC50", "setting": "[2]", "result": "9.68 µM (active)"}, {"measurement": "AC50", "setting": "[3]", "result": "> 70 µM (inactive)"}, {"measurement": "AC50", "setting": "[4]", "result": "27.3 µM (active)"}]}, {"smiles": "COC1=C(C)C(=O)C2=C(C1=O)C(CO)N1C(C#N)C3CC4C(C1C2N1CCOC41)N3C", "note": "(stereo not drawn)", "values": [{"measurement": "GI50", "setting": "P388/ADR", "result": "0.01 µM (active)"}, {"measurement": "GI50", "setting": "SN12K1", "result": "0.294 µM (active)"}, {"measurement": "GI50", "setting": "P388", "result": "< 0.01 µM (active)"}, {"measurement": "AC50", "setting": "Paired box protein Pax-8", "result": "< 0.26 µM (active)"}]}, {"smiles": "CCOC(=O)CC1NC(=O)c2ccccc21", "note": "(stereo not drawn)", "values": [{"measurement": "AC50", "setting": "Cytochrome P450 1A2", "result": "28.2 µM (inconclusive)"}]}, {"smiles": "NC(Cc1ccc(Cl)cc1)c1csc(NC(=O)NCC2CCCCC2)n1", "note": "(stereo not drawn)", "values": [{"measurement": "AC50", "setting": "[2]", "result": "6.58 µM (active)"}, {"measurement": "AC50", "setting": "[3]", "result": "11.1 µM (active)"}, {"measurement": "AC50", "setting": "[4]", "result": "9.27 µM (active)"}]}, {"smiles": "Cc1ccc(CN2CCN(/N=C/C(Br)=C\\c3ccccc3)CC2)cc1", "values": [{"measurement": "EC50", "setting": "[1]", "result": "> 53 µM (inactive)"}]}, {"smiles": "CN(C)CCNC(=O)c1cc(Cl)cc2ccc(-c3ccccc3)nc12", "values": [{"measurement": "GI50", "setting": "P388/ADR", "result": "1.47 µM (inactive)"}, {"measurement": "GI50", "setting": "SN12K1", "result": "1.77 µM (inactive)"}, {"measurement": "GI50", "setting": "P388", "result": "0.476 µM (active)"}]}, {"smiles": "Oc1c(CNCCCN2CCCC2)cc(Cl)c2cccnc12", "values": [{"measurement": "GI50", "setting": "P388/ADR", "result": "1.1 µM (active)"}, {"measurement": "GI50", "setting": "SN12K1", "result": "0.942 µM (active)"}, {"measurement": "GI50", "setting": "P388", "result": "1.69 µM (inactive)"}]}, {"smiles": "COc1cc(CCCOC2OC(COC3OCC(O)C(O)C3O)C(O)C(O)C2O)cc2cc(-c3ccc4c(c3)OCO4)oc12", "note": "(stereo not drawn)", "values": [{"measurement": "GI50", "setting": "P388/ADR", "result": "> 175 µM (inactive)"}, {"measurement": "GI50", "setting": "SN12K1", "result": "> 175 µM (inactive)"}, {"measurement": "GI50", "setting": "P388", "result": "> 175 µM (inactive)"}]}, {"smiles": "O=NN(CCCl)C(=O)NC1CCCCC1", "note": "[LOMUSTINE]", "values": [{"measurement": "GI50", "setting": "P388/ADR", "result": "4.56 µM (inactive)"}, {"measurement": "GI50", "setting": "SN12K1", "result": "32.6 µM (inactive)"}, {"measurement": "GI50", "setting": "P388", "result": "4.23 µM (inactive)"}]}]}
